What was measured:
[1] = test system: women with moderate to severe endometriosis-related pain; assay: PROMIS Fatigue SF-6a in Phase III study of endometriosis pain; format: in vivo, human
Procedure: A Phase III study was conducted to assess the effects of elagolix for clinically meaningful reductions in pain and other symptoms. Data provided examined the impact of elagolix on fatigue in women with moderate to severe endometriosis-related pain. […] Fatigue was assessed using the Patient Reported Outcome Measurement Information System (PROMIS®), Fatigue Short Form (SF) 6a. Six items assessed a range of self-reported symptoms from mild, subjective feelings of tiredness to overwhelming, sustained sense of exhaustion that likely decreases one's ability to execute daily activities and function normally. The domain was divided into the experience of fatigue (frequency, duration and intensity) and impact of fatigue on physical, mental and social activities. All items assessed fatigue over the previous seven days. […] Lower scores indicated less fatigue. Post-hoc, Fatigue SF-6a raw scores were converted to T-scores. The T-score rescales […] the raw score into a standardized score such that the general population has a mean of 50 and a standard deviation (SD) of 10. Analysis: […] ANCOVA controlled for treatment as main effect. Baseline Fatigue SF-6a T-score included as a covariate.

rats = assay: Lactation study in rats (secretion in milk); format: in vivo
Procedure: Pregnant rats were given diet containing elagolix throughout the gestation and lactation periods to achieve a daily elagolix dose of 400 mg/kg. During nursing the dams and litters were divided into restricted feeding and non-restricted groups to determine whether elagolix was secreted in the mother's milk. […] In pups of the non-restricted feeding group, elagolix plasma concentrations were measurable and approximately 1% of the mother's plasma concentrations.

[2] = Pharmacokinetics in specific populations (renal, hepatic impairment); format: in vivo, human; details: for Elagolix exposures in severe hepatic impairment relative to normal hepatic function: severe hepatic impairment (Child-Pugh C)
From the text: The mean exposures are similar for women with moderate to severe or end stage renal disease (including women on dialysis) compared to women with normal renal function.
Elagolix exposures (Cmax and AUC) are similar between women with normal hepatic function and women with mild hepatic impairment. Elagolix exposures in women with moderate and severe hepatic impairment are approximately 3-fold and 7-fold, respectively, of exposures from women with normal hepatic function.

[3] = test system: premenopausal women with HMB and UF; assay: Phase 2b trial, post hoc subgroup with uterine fibroids and non-dominant adenomyosis; format: in vivo, human; details: 6 months
Procedure: Patients and Methods: […] Elagolix studied in this clinical trial comprised the sodium salt of Compound A. All subjects were evaluated with ultrasound and a subset volunteered to also be evaluated by MRI. […] Efficacy and safety were evaluated post hoc in a subgroup of women who had confirmed non-dominant adenomyosis (ultrasound/MRI) at baseline. Menstrual blood loss (MBL) was quantified from sanitary products (alkaline hematin). […] Adverse events (AEs) were recorded.

[4] = Mutagenicity studies using in vitro and in vivo test systems
From the text: Mutagenicity studies have been performed with elagolix using in vitro and in vivo test systems.

[5] = test system: cytochrome P450 (CYP) 3A enzyme; assay: Drug interaction potential: CYP3A
From the text: Co-administration with ELAGOLIX may decrease plasma concentration of drugs that are substrates of CYP3A.
Elagolix is a substrate of CYP3A, P-gp, and organic anion transporting polypeptide (OATP)1B1. Clinically meaningful interactions are not expected when ELAGOLIX is co-administered with drugs that inhibit CYP3A or P-gp.

[6] = test system: premenopausal women with uterine fibroids; assay: Phase 2a trial of Elagolix with or without add-back in uterine fibroids with heavy menstrual bleeding; format: in vivo, human; details: for Percent of subjects achieving composite bleeding endpoint (MBL <80 mL at Final Month and ≥50% reduction in MBL from baseline, AH method): last 28 days of treatment, placebo 30%; for Percent of subjects with ≥25% reduction in uterine volume: placebo 9%; for Percent of subjects with ≥25% reduction in fibroid volume: placebo 29%; for Average Total Blood Loss Measured by AH Method During Treatment: 3 months of treatment, placebo 569.7; for Average Total MBL in Days 66-95 Post-Baseline: placebo 190.3; for Average total MBL from days 6-35 post-baseline: placebo 190.5; for Average Total MBL from Days 36-65 Post-Baseline: placebo 194.6
Procedure: Methods for analyzing menstrual blood loss are known in the art and include, for example, the alkaline hematin method. The alkaline hematin method is based on the quantitation of menstrual blood collected on sanitary products (Hallberg L., Nilsoon L., Determination of Menstrual Blood Loss. Scand. J. Clin. Lab. Invest., 1964; 16:244-248). The method uses a strong alkaline solution to chemically convert the heme from bloodstained sanitary products to alkaline hematin, which is measured colorimetrically. When compared to a subject's serum hemoglobin (Hgb), the volume of blood loss in the menstrual products can be determined. […] The study involved the following six (6) cohorts: Cohort 1: […] Cohort 2: Elagolix 300 mg BID or placebo. Cohort 3: […] Cohort 4: […] Cohort 6: […] There are a number of efficacy endpoints, but a composite endpoint consisting of two bleeding assessments was used to assess one measure of efficacy. […] Eighty-five percent (85%), 97%, and 30% of subjects achieved the composite bleeding assessment endpoint in the 200 mg BID, 300 mg BID, and placebo groups, respectively (P<0.05 for 200 mg BID versus placebo in cohort 1, and 300 mg BID versus placebo in cohort 2). […] Quality of life (QoL) measures were also determined using the “Responsiveness of the uterine fibroid symptom and health-related quality of life questionnaire” (UFS-QOL) (Harding, Gale, Coyne Karin S., Thompson Christine L., Spies James B, United BioSource Corporation, 7101 Wisconsin Avenue, Suite 600, Bethesda, Md., 20814, USA, Health and Quality Life Outcomes, 2008, 6, page 99).

mice = assay: 2-year carcinogenicity study in mice; format: in vivo; details: mouse; any dose
[7] = Binding to human plasma proteins; format: in vitro ADME; details: read-out: % Bound to human plasma proteins (converted)
[8] = 100 BID, screening 276.4 mL per cycle
[9] = 200 BID, screening 287.4 mL per cycle
[10] = 300 BID, screening 224.8 mL per cycle
[11] = 400 QD, screening 220.3 mL per cycle
[12] = 600 QD, screening 228.7 mL per cycle

COc1cccc(-c2c(C)n(Cc3c(F)cccc3C(F)(F)F)c(=O)n(C[C@H](NCCCC(=O)O)c3ccccc3)c2=O)c1F [Elagolix, 4-((R)-2-[5-(2-fluoro-3-methoxy-phenyl)-3-(2-fluoro-6-trifluoromethyl-benzyl)-4-methyl-2,6-dioxo-3,6-dihydro-2H-pyrimidin-1-yl]-1-phenyl-ethylamino)-butyric acid]
PROMIS Fatigue SF-6a T-Score ([1]; 200 mg, Month 1): statistically significant reduction in fatigue
PROMIS Fatigue SF-6a T-Score ([1]; both doses (150 mg QD, 200 mg BID), Months 3 and 6): Statistically significant reductions relative to placebo
Elagolix plasma concentrations in pups relative to the mother's plasma concentrations (rats; non-restricted feeding group, dams 400 mg/kg daily in diet): approximately 1%
Secretion in milk (rats; rats, pup plasma as surrogate of exposure via lactation): minimally secreted in milk
Elagolix plasma concentrations in pups (rats; restricted feeding litters, post natal day 10 and 20, dams 400 mg/kg daily in diet): not measurable
Elagolix exposures in moderate hepatic impairment relative to normal hepatic function ([2]; moderate hepatic impairment (Child-Pugh B)): approximately 3 fold
Elagolix exposures (Cmax and AUC) in renal impairment ([2]; moderate to severe or end stage renal disease vs normal renal function): not altered by renal impairment
Elagolix exposures in severe hepatic impairment relative to normal hepatic function [2]: ~7 fold
Elagolix exposures in severe hepatic impairment relative to normal hepatic function ([2]; listed as elagolix): approximately 7 fold
Elagolix exposures (Cmax and AUC) in mild hepatic impairment ([2]; vs women with normal hepatic function): similar
Proportion of women with ≥50% reduction from baseline in HMB and <80 mL MBL in the last 28 days of treatment ([3]; Cohort 1 (300 mg BID, with or without E2/NETA), placebo 40% (n=10)): 80%
Proportion of women with ≥50% reduction from baseline in HMB and <80 mL MBL in the last 28 days of treatment ([3]; Cohort 2 (600 mg QD, with or without E2/NETA), placebo 13% (n=16)): 92%
Mutagenic or clastogenic potential [4]: no evidence of a mutagenic or clastogenic potential
Induction of CYP3A [5]: weak to moderate inducer
Substrate of CYP3A [5]: substrate
Percent of subjects achieving composite bleeding endpoint (MBL <80 mL at Final Month and ≥50% reduction in MBL from baseline, AH method) ([6]; 200 mg BID): 85%
Percent of subjects with ≥25% reduction in uterine volume ([6]; 200 mg BID): 50%
Percent of subjects with ≥25% reduction in fibroid volume ([6]; 200 mg BID): 63%
Inhibition of bleeding ([6]; 300 mg BID without add-back therapy): maximum inhibition of bleeding (most of women achieved amenorrhea)
Women who reported an adverse event of hot flash ([6]; 300 mg BID, 400 mg QD and 600 mg QD without add-back): 50-62.5%
Effect on uterine and fibroid volumes (FIG. 4) ([6]; 300 mg BID, compared with other Elagolix treatments): showed the strongest effects
Percent of subjects achieving composite bleeding endpoint (MBL <80 mL at Final Month and ≥50% reduction in MBL from baseline, AH method) ([6]; 300 mg BID): 97%
Percent of subjects with ≥25% reduction in uterine volume ([6]; 300 mg BID): 68%
Percent of subjects with ≥25% reduction in fibroid volume ([6]; 300 mg BID): 55%
Inhibition of bleeding compared with 300 mg BID ([6]; 400 mg QD and 600 mg QD): slightly less effective
Average Total Blood Loss Measured by AH Method During Treatment ([6]; 100 BID, N = 26): 198.4 mL
Average Total MBL in Days 66-95 Post-Baseline [6, 8]: 65.4 mL
Average total MBL from days 6-35 post-baseline [6, 8]: 33.2 mL
Average Total MBL from Days 36-65 Post-Baseline [6, 8]: 100.9 mL
Average Total Blood Loss Measured by AH Method During Treatment ([6]; 200 BID, N = 28): 47.0 mL
Average Total MBL in Days 66-95 Post-Baseline [6, 9]: 41.5 mL
Average total MBL from days 6-35 post-baseline [6, 9]: 0 mL
Average Total MBL from Days 36-65 Post-Baseline [6, 9]: 5.5 mL
Average Total Blood Loss Measured by AH Method During Treatment ([6]; 300 BID, N = 26): 4.3 mL
Average Total MBL in Days 66-95 Post-Baseline [6, 10]: 4.3 mL
Average total MBL from days 6-35 post-baseline [6, 10]: 0 mL
Average Total MBL from Days 36-65 Post-Baseline [6, 10]: 0 mL
Average Total Blood Loss Measured by AH Method During Treatment ([6]; 400 QD, N = 26): 38.4 mL
Average Total MBL in Days 66-95 Post-Baseline [6, 11]: 21.6 mL
Average total MBL from days 6-35 post-baseline [6, 11]: 14.9 mL
Average Total MBL from Days 36-65 Post-Baseline [6, 11]: 12.4 mL
Average Total Blood Loss Measured by AH Method During Treatment ([6]; 600 QD, N = 24): 69.6 mL
Average Total MBL in Days 66-95 Post-Baseline [6, 12]: 14.9 mL
Average total MBL from days 6-35 post-baseline [6, 12]: 27.6 mL
Average Total MBL from Days 36-65 Post-Baseline [6, 12]: 35.0 mL
Tumors in 2-year carcinogenicity study (mice): no increase in tumors
fraction unbound [7]: 0.2

Source: patent publication US11690854B2, “Methods of treating heavy menstrual bleeding” (priority 2018, dated 2023)
